In PMC4094369 (Biochemical and biophysical research communications, 2013):
Values joined by “and” are separate entries in the source; they are usually repeats but may differ in a detail not shown here. Identical values can stand only once. “Also recorded” adds a separate entry of the source. Counter-ions that a name gives are not always drawn. Like-named read-outs stand apart in the source and are kept apart here.

Key:
glutaminase = molecular target: T1, glutaminase (Homo sapiens, UniProt O94925); experiment: Glutaminase activity of analogs; type: biochemical; conditions: for retention of biological (glutaminase) activity: analogs of chelerythrine, in words
T1 sequence (O94925 124-669 limits assumed): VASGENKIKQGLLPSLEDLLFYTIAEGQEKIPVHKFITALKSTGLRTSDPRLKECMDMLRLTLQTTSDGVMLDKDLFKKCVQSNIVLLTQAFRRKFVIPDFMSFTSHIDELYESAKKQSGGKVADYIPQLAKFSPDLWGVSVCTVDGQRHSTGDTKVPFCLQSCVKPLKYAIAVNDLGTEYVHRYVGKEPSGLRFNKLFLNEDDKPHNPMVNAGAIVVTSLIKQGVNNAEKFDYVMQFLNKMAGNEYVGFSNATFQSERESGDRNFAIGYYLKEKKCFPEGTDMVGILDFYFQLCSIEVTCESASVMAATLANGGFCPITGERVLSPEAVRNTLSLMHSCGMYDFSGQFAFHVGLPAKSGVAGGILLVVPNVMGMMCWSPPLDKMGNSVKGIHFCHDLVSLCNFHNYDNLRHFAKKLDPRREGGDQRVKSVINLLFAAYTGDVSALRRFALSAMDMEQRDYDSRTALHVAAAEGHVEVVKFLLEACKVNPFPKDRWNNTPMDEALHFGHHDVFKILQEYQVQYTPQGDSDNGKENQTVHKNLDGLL

[1] = molecular target: T2, mouse c-type glutaminase (mGAC) (Mus musculus, UniProt D3Z7P3); experiment: Glutaminase activity, Amplex UltraRed fluorescent assay; type: biochemical
T2 sequence (D3Z7P3 55-603 isoform D3Z7P3-2 limits assumed): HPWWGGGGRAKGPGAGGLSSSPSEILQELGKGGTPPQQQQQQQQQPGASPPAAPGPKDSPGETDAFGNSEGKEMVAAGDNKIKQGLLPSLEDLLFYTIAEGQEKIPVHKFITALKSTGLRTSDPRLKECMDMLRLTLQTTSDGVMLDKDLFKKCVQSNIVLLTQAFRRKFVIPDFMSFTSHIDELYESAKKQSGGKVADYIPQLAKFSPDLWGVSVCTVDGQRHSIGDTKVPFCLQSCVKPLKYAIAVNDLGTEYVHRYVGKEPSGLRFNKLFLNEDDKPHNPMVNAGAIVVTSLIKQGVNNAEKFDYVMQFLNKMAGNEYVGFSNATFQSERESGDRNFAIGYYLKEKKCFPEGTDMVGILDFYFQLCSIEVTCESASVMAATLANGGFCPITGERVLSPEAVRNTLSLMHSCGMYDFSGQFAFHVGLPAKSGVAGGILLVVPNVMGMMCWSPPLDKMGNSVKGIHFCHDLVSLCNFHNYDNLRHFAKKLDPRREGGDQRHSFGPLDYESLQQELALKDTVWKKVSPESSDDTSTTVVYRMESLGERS

[2] = molecular target: T3, mouse liver glutaminase (mLGA) (Mus musculus, UniProt Q571F8); experiment: as above; type: biochemical; conditions: for activity against GLS2 (mLGA) relative to GLS1 isoforms: fold less activity against GLS2 than GLS1 (hKGAΔ1, mGAC)
T3 sequence (Q571F8 15-602): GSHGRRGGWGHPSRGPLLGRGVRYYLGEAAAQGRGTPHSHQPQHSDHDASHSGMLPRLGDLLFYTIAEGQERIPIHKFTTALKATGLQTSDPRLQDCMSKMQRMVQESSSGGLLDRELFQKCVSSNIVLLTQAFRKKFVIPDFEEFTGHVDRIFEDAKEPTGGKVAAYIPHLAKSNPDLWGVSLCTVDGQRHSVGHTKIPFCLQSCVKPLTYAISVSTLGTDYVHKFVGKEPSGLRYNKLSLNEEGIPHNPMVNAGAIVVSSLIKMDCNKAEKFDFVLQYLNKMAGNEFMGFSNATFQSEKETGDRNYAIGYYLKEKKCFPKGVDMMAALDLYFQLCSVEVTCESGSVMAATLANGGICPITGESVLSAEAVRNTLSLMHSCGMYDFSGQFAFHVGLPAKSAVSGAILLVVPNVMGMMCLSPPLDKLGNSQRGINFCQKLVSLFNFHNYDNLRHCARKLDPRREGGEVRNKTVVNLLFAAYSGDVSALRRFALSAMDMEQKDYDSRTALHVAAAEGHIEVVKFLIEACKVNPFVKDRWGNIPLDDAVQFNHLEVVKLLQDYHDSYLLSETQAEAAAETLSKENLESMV

glutaminase (hKGAΔ1) [3] = molecular target: T4, glutaminase (hKGAΔ1) (Homo sapiens, UniProt O94925); type: biochemical; conditions: for Ki: Ki (competition studies), presence of glutamine; for Mode of inhibition: competition studies, average of 2–4 determinations
T4 sequence (O94925 124-669 limits assumed): T1 sequence (O94925 124-669 limits assumed)

glutaminase (hKGAΔ1) [4] = molecular target: T4, glutaminase (hKGAΔ1); experiment: Inactivation studies: time-dependent inhibition of glutaminase; type: biochemical; conditions: for KI (inactivation): read-out: Ki (inactivation studies); for time- and concentration-dependence of glutaminase inactivation: in words
Solubility = type: physicochemical; conditions: in words, no data shown
[5] = in vivo; cited from earlier work
hKGAΔ1 (GLS1) = molecular target: T5, hKGAΔ1 (GLS1) (Homo sapiens, UniProt O94925); experiment: Glutaminase activity, Amplex UltraRed fluorescent assay; type: biochemical
T5 sequence (O94925 124-669 limits assumed): T1 sequence (O94925 124-669 limits assumed)

[6] = read-out: Avg. IC50, Table 6, analogs of apomorphine

With `O=C1c2ccccc2CN1c1ccccc1` [2-Phenyl isoindolin-1-one] as the compound, how does the IC50 (glutaminase) read?
The IC50 was greater than 100 µM.

Which IC50 (glutaminase) does the source give for `O=c1c2ccccc2on1-c1ccccc1` [2-Phenylbenzo[d] isoxazol-3(2H)-one] here?
The IC50 was 20 µM.

Which IC50 (glutaminase) does the source give for `O=c1c2ccccc2sn1-c1ccccc1` [2-Phenylbenzo[d]isothiazol-3(2H)-one] here?
Its IC50 is 0.02 µM.

What does the source list for `CN1CCc2cccc3c2C1Cc1ccc(O)c(O)c1-3` (stereo not shown) [Apomorphine hydrochloride, 5,6,6a,7-tetrahydro-6-methyl-4H-dibenzo[de,g] quinoline-10,11-diol]?
IC50 [1]: 1 µM; IC50 [2]: 0.3 µM; Ki (glutaminase (hKGAΔ1) [3]): 2 µM; Mode of inhibition (glutaminase (hKGAΔ1) [3]): Competitive; Mode of inhibition (glutaminase (hKGAΔ1) [3]; listed as apomorphine): competitive inhibition; kinact/KI (glutaminase (hKGAΔ1) [4]): 13200 M⁻¹ s⁻¹; kinact (glutaminase (hKGAΔ1) [4]; rate constant of inactivation): 5.56e-05 s⁻¹; KI (inactivation) (glutaminase (hKGAΔ1) [4]): 0.004 µM; IC50 (glutaminase): 0.6 µM; solubility relative to BPTES (Solubility): more soluble than BPTES

Which bioavailability [5] does the source give for `O=C(Cc1ccccc1)Nc1nnc(CCSCCc2nnc(NC(=O)Cc3ccccc3)s2)s1` [BPTES, bis-2-(5-phenylacetimido-1,2,4-thiadiazol-2-yl)ethyl sulfide] here?
The bioavailability was “low bioavailability”.

For `COc1ccc2cc3[n+](cc2c1OC)CCc1cc2c(cc1-3)OCO2` [Berberine chloride, 5,6-dihydro-9,10-dimethoxy-benzo[g]-[1,3] benzodioxolo[5,6-a]quinolizinium], which IC50 (glutaminase) is on record?
The IC50 was greater than 100 µM.

And the “retention of biological (glutaminase) activity” value (from here on “retention of biological”) (glutaminase)?
The value was “did not maintain activity”.

Which IC50 (hKGAΔ1 (GLS1)) does the source give for `COc1ccc2c(c[n+](C)c3c4cc5c(cc4ccc23)OCO5)c1OC` [Chelerythrine chloride, 1,2-dimethoxy-N-methyl[1,3]benzodioxolo[5,6-c]phenanthridinium] here?
The IC50 was 0.03 µM.

What about the IC50 [1] of the same compound?
Its IC50 is 0.07 µM.

What about the IC50 [2] of the same compound?
The IC50 was 0.3 µM.

And the “activity against GLS2 (mLGA) relative to GLS1 isoforms” value [2]?
The value was 5 to 10 fold.

And the Mode of inhibition (glutaminase (hKGAΔ1) [3])?
The Mode of inhibition was “Competitive”.

And the Mode of inhibition (glutaminase (hKGAΔ1) [3]; listed as chelerythrine)?
Its Mode of inhibition is “competitive inhibition”.

And the kinact/KI (glutaminase (hKGAΔ1) [4])?
Its kinact/KI is 29200 M⁻¹ s⁻¹.

What about the kinact (glutaminase (hKGAΔ1) [4]; rate constant of inactivation) of the same compound?
Its kinact is 0.000958 s⁻¹.

And the KI (inactivation) (glutaminase (hKGAΔ1) [4])?
Its KI (inactivation) is 0.03 µM.

And the IC50 (glutaminase)?
The IC50 was 0.03 µM.

And the “solubility relative to BPTES” value (Solubility)?
Its value is “more soluble than BPTES”.

Which Mode of inhibition (glutaminase (hKGAΔ1) [3]) does the source give for `[N-]=[N+]=CC(=O)CC[C@H](N)C(=O)O` [DON, 6-diazo-5-oxo-L-norleucine] here?
The Mode of inhibition was “Time-dependent”.

What about the kinact/KI (glutaminase (hKGAΔ1) [4]) of the same compound?
The kinact/KI was 2.53 M⁻¹ s⁻¹.

What about the “time- and concentration-dependence of glutaminase inactivation” value (glutaminase (hKGAΔ1) [4]) of the same compound?
The value was “both concentration and time of incubation dependent; also recorded: time-dependent and irreversible”.

What about the kinact (glutaminase (hKGAΔ1) [4]; rate constant of inactivation) of the same compound?
Its kinact is 1.39e-05 s⁻¹.

What about the KI (inactivation) (glutaminase (hKGAΔ1) [4]) of the same compound?
Its KI (inactivation) is 6 µM.

Which IC50 (hKGAΔ1 (GLS1)) does the source give for `O=c1c2ccccc2[se]n1-c1ccccc1` [Ebselen, 2-phenyl-1,2-benzisoselenazol-3[2H]-one] here?
Its IC50 is 0.008 µM.

And the IC50 [1]?
The IC50 was 0.02 µM.

And the IC50 [2]?
The IC50 was 0.1 µM.

And the “activity against GLS2 (mLGA) relative to GLS1 isoforms” value [2]?
The value was 5 to 10 fold.

What about the Ki (glutaminase (hKGAΔ1) [3]) of the same compound?
Its Ki is ~0.015 µM and 0.015 µM.

What about the “decrease in Vmax” value (glutaminase (hKGAΔ1) [3]; as the concentration of inhibitor was increased) of the same compound?
Its value is 6 fold.

What about the Mode of inhibition (glutaminase (hKGAΔ1) [3]) of the same compound?
Its Mode of inhibition is “Mixed non-competitive”.

And the Mode of inhibition (glutaminase (hKGAΔ1) [3]; listed as ebselen)?
The Mode of inhibition was “mixed non-competitive inhibition”.

What about the kinact (glutaminase (hKGAΔ1) [4]) of the same compound?
Its kinact is 0.000367 s⁻¹.

And the kinact/KI (glutaminase (hKGAΔ1) [4])?
The kinact/KI was 25200 M⁻¹ s⁻¹.

What about the “time- and concentration-dependence of glutaminase inactivation” value (glutaminase (hKGAΔ1) [4]) of the same compound?
Its value is “dependent on both concentration and time of incubation”.

What about the kinact (glutaminase (hKGAΔ1) [4]; rate constant of inactivation) of the same compound?
Its kinact is 0.000364 s⁻¹.

What about the KI (inactivation) (glutaminase (hKGAΔ1) [4]) of the same compound?
Its KI (inactivation) is ~0.014 µM and 0.014 µM.

What about the “solubility relative to BPTES” value (Solubility) of the same compound?
The value was “more soluble than BPTES”.

With `COc1cc2c[n+](C)c3c4cc5c(cc4ccc3c2cc1OC)OCO5` [Nitidine chloride, 2,3-dimethoxy-N-methyl[1,3]benzodioxolo[5,6-c]phenanthridinium] as the compound, how does the IC50 (glutaminase) read?
Its IC50 is 9 µM.

And the “retention of biological” value (glutaminase; listed as nitidine)?
Its value is “retained”.

And the “retention of biological” value (glutaminase; listed as nitidine chloride)?
Its value is “retained biological activity”.

Which IC50 (glutaminase) does the source give for `c1cc2c(cnc3c4cc5c(cc4ccc23)OCO5)c2c1OCO2` [Norsanguinarine chloride, [1,3]-benzodioxolo[5,6-c]-1,3-dioxolo[4,5-i]phenanthridine] here?
Its IC50 is greater than 100 µM.

And the “retention of biological” value (glutaminase)?
The value was “biological activity was lost”.

With `C[n+]1cc2c3c(ccc2c2ccc4cc5c(cc4c21)OCO5)OCO3` [Sanguinarine chloride, 13-methyl-[1,3]-benzodioxolo[5,6-c]-1,3-dioxolo[4,5-i]phenanthridinium] as the compound, how does the IC50 (glutaminase) read?
The IC50 was 0.1 µM.

And the “retention of biological” value (glutaminase; listed as sanguinarine)?
The value was “retained”.

And the “retention of biological” value (glutaminase; listed as sanguinarine chloride)?
Its value is “retained biological activity”.

For `CN1CCc2cccc3c2[C@@H]1Cc1ccc(O)c(O)c1-3` [S–Apomorphine hydrochloride], which IC50 (glutaminase; [6]) is on record?
Its IC50 is 0.4 µM.

With R(−)-Apocodeine hydrochloride as the compound, how does the “loss of activity relative to apomorphine” value (glutaminase; hydroxyl replaced with methoxy) read?
Its value is 10 fold.

What about the IC50 (glutaminase; [6]) of the same compound?
The IC50 was 4 µM.

Which IC50 (glutaminase; [6]) does the source give for R(−)-Propylnorapomorphine hydrochloride here?
Its IC50 is 0.9 µM.
